Source: publication PMC5125695, “Antiviral Efficacy of Verdinexor In Vivo in Two Animal Models of Influenza A Virus Infection” (PLoS ONE, 2016)
Like-named read-outs stand apart in the source and are kept apart here.

Key:
[1] = preliminary results, phase I and II studies; cited from earlier work
[2] = in vivo
[3] = mice, 20 mg/kg at day 1 and 3; data not shown
[4] = test system: A/California/04/09; parameters: species or system ferrets; conditions: in vivo
[5] = test system: A/California/04/09; parameters: species or system ferrets; conditions: in vivo; remark: listed apart in the source
[6] = human, in vivo; cited from earlier work
[7] = test system: A/California/04/09-MA; conditions: cited from earlier work
[8] = test system: A/California/04/09; parameters: species or system ferrets; conditions: in vivo; remark: listed apart in the source
[9] = in vivo; conditions: male, po, 5 mg/kg
[10] = test system: various influenza A and B virus strains; conditions: cited from earlier work
[11] = test system: A/California/04/09; type: in vivo, ferrets

Structure (SMILES): O=C(/C=C\n1cnc(-c2cc(C(F)(F)F)cc(C(F)(F)F)c2)n1)NNc1cnccn1 [selinexor]
- Anti-cancer activity in human patients [1]: evidence of anti-cancer activity
- Oral exposure in human patients [1]: good oral exposure

Structure (SMILES): O=C(/C=C\n1cnc(-c2cc(C(F)(F)F)cc(C(F)(F)F)c2)n1)NNc1ccccn1 [verdinexor]
- Clearance from the plasma [2]: more rapidly cleared from the plasma compared to mice
- Oral bioavailability ([2]; po): orally bioavailable
- Efficacy and tolerability of the treatment regimen [3]: most efficacious yet well tolerated
- Lung virus titers at day 4 pi ([4]; 10 mg/kg): considerably (p≤0.001) reduced lung virus titers
- Lung virus titers at day 4 pi ([4]; 15 mg/kg): considerably (p≤0.001) reduced lung virus titers
- Lung virus titers at day 4 pi ([4]; 25 mg/kg): considerably (p≤0.001) reduced lung virus titers
- Influenza-associated lung pathology and inflammation ([5]; 10 mg/kg): significant amelioration
- Lung score of the representative animal (range 0–4) ([5]; 10 mg/kg): 2
- Influenza-associated lung pathology and inflammation ([5]; 15 mg/kg): limited reduction in pathology
- Lung score of the representative animal (range 0–4) ([5]; 15 mg/kg): 2
- Influenza-associated lung pathology and inflammation ([5]; 25 mg/kg): significant amelioration
- Lung score of the representative animal (range 0–4) ([5]; 25 mg/kg): 2
- Safety and tolerability in a phase I clinical trial [6]: safe and well-tolerated
- Virus burden and inflammatory cytokines expression in lungs ([7]; mice infected with A/California/04/09-MA): efficacious in limiting virus burden and inflammatory cytokines expression
- Lung pathology and mortality upon lethal virus infection ([7]; mice, oral verdinexor): reduced lung pathology and mortality
- Infiltrating leukocytes in nasal washes at day 2 pi [8]: Lower numbers of infiltrating leukocytes
- Infiltrating leukocytes in nasal washes at day 4 pi ([8]; 10 mg/kg): significant (p≤0.05) reduction
- Infiltrating leukocytes in nasal washes at day 4 pi ([8]; 25 mg/kg): significant (p≤0.05) reduction
- AUC(0-inf) [9]: 3510 ng·h/mL
- AUC(0-t) [9]: 3510 ng·h/mL
- Cmax [9]: 1490 ng/mL
- Tmax [9]: 0.361 h
- half-life [9]: 1.84 h
- Replication of various influenza A and B virus strains [10]: effective to inhibit the replication
- IFN-γ expression in nasal exudates at day 2 and 4 pi ([11]; […], not statistically significant): trend toward reduced IFN-γ expression
- IL-12p40 expression in nasal exudates at day 2 pi ([11]; in vivo, 10 mg/kg): reduced IL-12p40 expression
- IL-12p40 expression in nasal exudates at day 2 pi ([11]; in vivo, 25 mg/kg): reduced IL-12p40 expression
- TNF-α expression in nasal exudates at day 2 pi ([11]; in vivo, 25 mg/kg): reduced TNF-α expression

Structure (SMILES): CCOC(=O)C1=C[C@@H](OC(CC)CC)[C@H](NC(C)=O)[C@@H](N)C1 [oseltamivir, reference compound]
- Lung virus titers at day 4 pi [4]: considerably (p≤0.001) reduced lung virus titers
- Influenza-associated lung pathology and inflammation [5]: limited reduction in pathology
- Lung score of the representative animal (range 0–4) [5]: 3
- Infiltrating leukocytes in nasal washes at day 2 pi [8]: Lower numbers of infiltrating leukocytes
- IFN-γ expression in nasal exudates at day 2 and 4 pi ([11]; in vivo): trend toward reduced IFN-γ expression
- IL-12p40 expression in nasal exudates at day 2 pi ([11]; in vivo): reduced IL-12p40 expression
- TNF-α expression in nasal exudates at day 2 pi ([11]; in vivo): reduced TNF-α expression
